Measurements from ChEMBL document CHEMBL4665818, “Calvatianone, a Sterol Possessing a 6/5/6/5-Fused Ring System with a Contracted Tetrahydrofuran B-Ring, from the Fruiting Bodies of Calvatia nipponica” (J Nat Prod, 2020).
Activity calls are given as the source filed them. No cut-off for these calls is given here.

How the values were obtained:
Format in all cases: functional, cell-based
MCF7 [1] = test: Cytotoxicity against human MCF7 cells assessed as reduction in cell viability <= 100 uM after 24 hrs by MTT assay; conditions: dose microM <=100, time 24.0 hrs
MCF7 [2] = test: Cytotoxicity against human MCF7 cells assessed as reduction in cell viability at 100 nM after 24 hrs in presence of ER antagonist ICI 182,780 by MTT assay
MCF7 [3] = test: Cytotoxicity against human MCF7 cells assessed as 17beta-estradiol-induced reduction in cell viability at 200 uM after 24 hrs by MTT assay
MCF7 [4] = test: Cytotoxicity against human MCF7 cells assessed as 17beta-estradiol-induced reduction in cell viability at 100 uM after 24 hrs by MTT assay

## COC(=O)C[C@]12OC3=CC(=O)CC[C@]3(C)[C@H]1CC[C@]1(C)[C@@H]([C@H](C)/C=C/[C@H](C)C(C)C)CC[C@H]12
MCF7 [1]
  Activity: Active
MCF7 [2]
  Activity: Active

## CC(C)[C@@H](C)/C=C/[C@@H](C)[C@H]1CC[C@H]2[C@]3(O)C=CC4=CC(=O)CC[C@]4(C)[C@H]3CC[C@]12C
MCF7 [1]
  Activity: Active
MCF7 [2]
  Activity: Active
MCF7 [3]
  Activity: Active

## CC(C)[C@@H](C)/C=C/[C@@H](C)[C@H]1CCC(=O)[C@]23CC(=O)[C@@H]4CC(=O)CC[C@]4(C)[C@H]2CC[C@]13C
MCF7 [1]
  Activity: Active
MCF7 [2]
  Activity: Active

## CC(C)[C@@H](C)/C=C/[C@@H](C)[C@H]1CC[C@@H]2[C@]1(C)CC[C@H]1[C@]23C=C[C@]2(C[C@@H](O)CC[C@]12C)OO3
MCF7 [1]
  Activity: Active
MCF7 [2]
  Activity: Active
MCF7 [4]
  Activity: Active

## CC(C)[C@@H](C)/C=C/[C@@H](C)[C@H]1CC[C@@H]2[C@]1(C)CC=C1[C@]23C=C[C@]2(C[C@@H](O)CC[C@]12C)OO3
MCF7 [1]
  Activity: Active
MCF7 [2]
  Activity: Active
